The text below walks through data of patent US12162819B2, “Ionizable lipid compounds” (Beijing Jitai Pharmaceutical Technology Co., Ltd., priority 2022, dated 2024).

Series [1] in a line: Particle size and PDI of lipid nanoparticles by dynamic light scattering. The following applies: lipid nanoparticle with the cationic lipid, cholesterol, DSPC, DMG-PEG2000 (50/38.5/10/1.5 mol%), luciferase mRNA, N/P 6. It is filed as physicochemical. On the procedure:
(§1) Lipid nanoparticles were prepared by (1) dissolving and mixing ionizable lipid compounds, cholesterol, phospholipids and polyethylene glycolated lipids in ethanol at (molar percentages) 50%, 38.5%, 10% and 1.5%, respectively; (2) dissolving the mRNA active ingredient in 25 mM sodium acetate solution (pH=4.5); (3) using an automated high-throughput microfluidic system to mix the organic phase containing the lipid mixture and the aqueous phase containing the mRNA component in the flow ratio range of 1:1 to 1:4 at a mixing speed of 10 mL/min to 18 mL/min; (4) the prepared lipid nanoparticles (N/P ratio of 6) were diluted with phosphate buffer solution and the nanoparticle solutions were ultrafiltered to the original preparation volume using ultrafiltration tubes (purchased from Millipore) with a cut-off molecular weight of 30 kDa; and (5) the obtained nanoparticles were filtered through a sterile 0.2 μm filter membrane and then stored in a sealed glass vial at low temperature.
(§2) The particle size and particle size dispersity index (PDI) of the prepared lipid nanoparticles were measured using a Zetasizer Pro (purchased from Malvern Instruments Ltd) and a DynaPro NanoStar (purchased from Wyatt) dynamic light scattering instrument. The degree of RNA encapsulation by lipid nanoparticles was characterized by the Encapsulation Efficiency %, which reflects the degree of binding of lipid nanoparticles to RNA fragments. This parameter was measured by the method of Quant-It™ RiboGreen RNA Assay (purchased from Invitrogen). Lipid nanoparticle samples were diluted in TE buffer (10 mM Tris-HCl, 1 mM EDTA, pH=7.5). A portion of the sample solution was removed, to which 0.5% Triton (Triton X-100) was added, and then allowed to stand at 37° C. for 30 minutes. Immediately after the addition of RIBOGREEN® reaction solution, the fluorescence values were read on a Varioskan LUX multifunctional microplate reader (purchased from Thermofisher) at 485 nm for absorption and 528 nm for emission to give the encapsulation efficiency values.

The nature of series [2]: Encapsulation efficiency of lipid nanoparticles, Quant-It RiboGreen RNA Assay. The series is classed as physicochemical. The following applies: lipid nanoparticle with the cationic lipid, luciferase mRNA. On the procedure: as §1, §2
Series [3] concerns C57BL/6 mice. In words: In vivo bioluminescence assay of lipid nanoparticles encapsulated with luciferase mRNA in mice. The following applies: for in vivo delivery efficiency compared with the molecule without tetramethyl: LNP with luciferase mRNA in mice, compound 20 vs. D1, compound 46 vs. D2; for Total photon count in vivo at 6 hours after administration (Total Flux): C57BL/6 mice, intravenous, single dose 0.5 mg/kg luciferase mRNA in LNP, group mean. As to the method: as §1
The delivery effect and safety of nanoparticles encapsulated with luciferase mRNA (Trilink, L-7202) in mice were evaluated. The test mice were SPF-grade C57BL/6 mice, female, 6-8 weeks old, weighing 18-22 g, and were purchased from SPF (Beijing) Biotechnology Co., Ltd. All animals were acclimatized for more than 7 days prior to the experiment, and had free access to food and water during the experiment. The conditions include alternating light and dark for 12/12 h, the indoor temperature of 20-26° C. and the humidity of 40-70%. The mice were randomly grouped. The lipid nanoparticles encapsulated with luciferase mRNA prepared above were injected into mice by intravenous administration at a single dose of 0.5 mg/kg mRNA, and the mice were subjected to in vivo bioluminescence assay using a Small Animal In Vivo Imaging System (IVIS LUMINA III, purchased from PerkinElmer) at 6 h after administration. The assay was performed as follows: D-luciferin solution was prepared in saline at a concentration of 15 mg/mL, and each mouse was given the substrate by intraperitoneal injection. At ten minutes after administration of the substrate, the mice were anesthetized in an anesthesia chamber with isoflurane at a concentration of 2.5%. The anesthetized mice were placed in IVIS for fluorescence imaging, and data acquisition and analysis were performed on the concentrated distribution area of fluorescence.
The in vivo delivery efficiency of lipid nanoparticle carriers was expressed as the mean values of fluorescence intensity and total photon count in different animals within the same subject group, as shown in Table 5. Higher values of fluorescence intensity and total photon count indicate higher in vivo delivery efficiency of this mRNA fragment by lipid nanoparticles. The lipid nanoparticles containing the cationic lipids of the present disclosure have good in vivo delivery efficiency.

Series [4] deals with human embryonic kidney cells 293 (HEKi293T cells). Briefly: In vitro delivery of luciferase mRNA nanoparticles, luciferase expression (RLU). The following applies: HEK293T cells, LNP with luciferase mRNA, 24 h. It is filed as cell-based. As to the method: as §1
(§3) The delivery effect and safety of nanoparticles encapsulated with luciferase mRNA were evaluated at the cellular level in vitro. The cells used in the assay were human embryonic kidney cells 293 (HEKi293T cells) cultured in DMEM (Dulbecco's Modified Eagle Medium) (purchased from Thermo Fisher) containing […] fetal bovine serum and […] penicillin-streptomycin double antibiotics at a indoor temperature of 37° C. and a CO2 concentration of […]. The cells were uniformly dispersed and spread in 48-well plates, and incubated in the incubator for 24 h. Then a solution of the lipid nanoparticles encapsulated with luciferase mRNA were added. After 24 h, the cells were lysed, and the intracellular expression intensity and relative light units (RLU) of luciferase in each type of lipid nanoparticles were measured with a luciferase detection reagent (purchased from Promega). The higher the intensity of expression, the higher the delivery efficiency of the lipid material at the cellular level. Meanwhile, CCK-8 reagent (purchased from DOJINDO) was used in cytotoxicity testing for the parallel lipid nanoparticle-treated cell groups after 24 hours. In the test, the group of cells to which only PBS was added was used as a negative control. The procedure was as follows: after the addition of CCK-8 solution, the cells were left to stand in an incubator at 37° C. for 4 h. The absorbance values were read on a multifunctional microplate reader at an absorbance band of 450 nm. The ratio of the absorbance value of the nanoparticle-treated cells to that of the negative control was used as a characterization parameter for cell viability.

For series [5] the test system is unchanged. Briefly: CCK-8 cytotoxicity testing of lipid nanoparticle-treated cells. The series is classed as cell-based. The following applies: HEK293T cells, LNP-treated 24 h, CCK-8, ratio to PBS negative control. Details: concentration or dose not given beside the values. As to the method:
as §1, §3
Background: Tetrazolium assays rely on reduction of a dye to a coloured formazan, in cell work by metabolically active cells.

On to `CCCCCCCCCOC(=O)C(C)(C)CCCCCC(CCCCCC(C)(C)C(=O)OCCCCCCCCC)OC(=O)CCCN(C)C` [Compound 20], for which, in series [1], the “Particle size (nm)” value is recorded as 99.61 nm and the “Particle size dispersity (PDI)” value amounted to 0.10. Further, in series [2], the “Encapsulation efficiency (%)” value turned out to be 71.93%. In series [3], the “in vivo delivery efficiency compared with the molecule without tetramethyl” value is recorded as “significantly increased in vivo delivery efficiency”.
With `CCCCCCCCCOC(=O)C(C)(C)CCCCCC(CCCCCC(C)(C)C(=O)OCCCCCCCCC)OC(=O)CCCCCN(C)C` [Compound 32], the “Luciferase luminescence (RLU)” value in series [4] amounted to 6.99E+06 RLU. Also, in series [5], the “Cell viability (%)” value is listed as 96.25%. Also, in series [1], the “Particle size (nm)” value was determined as 116.61 nm and the “Particle size dispersity (PDI)” value is 0.07. Besides, the “Encapsulation efficiency (%)” value in series [2] amounted to 99.02%.
`CCCCCCCCCSC(=O)C(C)(C)CCCCCC(CCCCCC(C)(C)C(=O)SCCCCCCCCC)OC(=O)CCCN(C)C` [Compound 37]: the “Luciferase luminescence (RLU)” value in series [4] was 1.04E+07 RLU. In addition, the “Cell viability (%)” value in series [5] was determined as 97.48%. In series [1], the “Particle size (nm)” value came out at 92.18 nm and the “Particle size dispersity (PDI)” value turned out to be 0.03. The “Encapsulation efficiency (%)” value in series [2] is recorded as 89.07%.
For `CCCCCCCCCOC(=O)C(C)(C)CCCCCC(CCCCCC(C)(C)C(=O)SCCCCCCCCC)OC(=O)CCCN(C)C` (stereo not drawn) [Compound 41], in that order: 1.23E+07 RLU, 104.91%, 104.27 nm, 0.05 and 93.91%.
With `CCCCCCCCCOC(=O)C(C)(C)CCCCCC(CCCCCC(C)(C)C(=O)OCC(CCCCC)CCCCCCC)OC(=O)CCCN(C)C` (stereo not drawn) [Compound 46], in series [1], the “Particle size (nm)” value came to 97.30 nm and the “Particle size dispersity (PDI)” value is reported as 0.09. Besides, the “Encapsulation efficiency (%)” value in series [2] is 95.68%. Besides, the “in vivo delivery efficiency compared with the molecule without tetramethyl” value in series [3] is “significantly increased in vivo delivery efficiency”.
For the compound `CCCCCCCCCOC(=O)CC(C)(C)CCCCC(CCCCC(C)(C)CC(=O)OCCCCCCCCC)OC(=O)CCCN(C)C` [Compound 97], in series [1], the “Particle size (nm)” value was 157.00 nm and the “Particle size dispersity (PDI)” value was 0.25. The “Encapsulation efficiency (%)” value in series [2] was found to be 93.72%. For the same compound, in series [3], the “Total photon count in vivo at 6 hours after administration (Total Flux)” value (shortened to “Total photon count in vivo at 6 hours”) was determined as 3.37E+09.
For `CCCCCCCCCCOC(=O)C(C)(C)CCCCCC(CCCCCC(C)(C)C(=O)OCCCCCCCCCC)OC(=O)C1CCN(C)CC1` [Compound 99], in series [1], the “Particle size (nm)” value was determined as 139.99 nm and the “Particle size dispersity (PDI)” value stood at 0.05. In series [2], the “Encapsulation efficiency (%)” value was 90.69%. Further, the “Total photon count in vivo at 6 hours” value in series [3] was determined as 5.30E+09.
As for `CCCCCCCCOC(=O)C(C)(C)CCCCCC(CCCCCC(C)(C)C(=O)OCCCCCCCC)OC(=O)C1CCN(C)CC1` [Compound 100], the “Luciferase luminescence (RLU)” value in series [4] came to 1.98E+06 RLU. Further, the “Cell viability (%)” value in series [5] was 104.67%. Also, in series [1], the “Particle size (nm)” value was 118.19 nm and the “Particle size dispersity (PDI)” value worked out at 0.07. Also, the “Encapsulation efficiency (%)” value in series [2] came out at 83.29%.
As for `CCCCCCCCCSC(=O)C(C)(C)CCCCCC(CCCCCC(C)(C)C(=O)SCCCCCCCCC)OC(=O)CC1CCN(CCO)CC1` [Compound 110], in series [1], the “Particle size (nm)” value was 97.59 nm and the “Particle size dispersity (PDI)” value was determined as 0.01. Also, the “Encapsulation efficiency (%)” value in series [2] is 92.65%. In series [3], the “Total photon count in vivo at 6 hours” value is 2.06E+08.
Consider `CCCCCCCCCOC(=O)C(C)(C)CCCCCC(CCCCCC(C)(C)C(=O)OCCCCCCCCC)OC(=O)CC1CCN(CCO)CC1` [Compound 113], for which, in series [1], the “Particle size (nm)” value turned out to be 112.65 nm and the “Particle size dispersity (PDI)” value was 0.03. Further, the “Encapsulation efficiency (%)” value in series [2] is on record as 94.77%. In addition, in series [3], the “Total photon count in vivo at 6 hours” value is given as 3.59E+08.
On to `CCCCCCCCCOC(=O)C(C)(C)CCCCCC(CCCCCC(C)(C)C(=O)OCC(CCCCC)CCCCCCC)OC(=O)CC1CCN(CCO)CC1` (stereo not drawn) [Compound 114], for which, in series [1], the “Particle size (nm)” value was found to be 72.32 nm and the “Particle size dispersity (PDI)” value is 0.04. Besides, in series [2], the “Encapsulation efficiency (%)” value came out at 93.41%. In series [3], the “Total photon count in vivo at 6 hours” value was found to be 1.06E+08.
For `CC(C)CCCCCCCOC(=O)CCC(C)(C)CCCC(CCCC(C)(C)CCC(=O)OCCCCCCCC(C)C)OC(=O)CCCN(C)C` [Compound 127], in series [1], the “Particle size (nm)” value was determined as 83.01 nm and the “Particle size dispersity (PDI)” value is given as 0.05. Also, in series [2], the “Encapsulation efficiency (%)” value was found to be 62.35%. Besides, the “Total photon count in vivo at 6 hours” value in series [3] is given as 3.59E+10.
Consider `CCCCC/C=C\C/C=C\CCCCCCCCC(CCCCCCCC/C=C\C/C=C\CCCCC)OC(=O)CCCN(C)C` [DLin-MC3-DMA, reference compound], for which the “Luciferase luminescence (RLU)” value in series [4] amounted to 2.95E+06 RLU. The “Cell viability (%)” value in series [5] was 97.84%. Besides, in series [1], the “Particle size (nm)” value worked out at 96.83 nm and the “Particle size dispersity (PDI)” value worked out at 0.04. Besides, in series [2], the “Encapsulation efficiency (%)” value amounted to 95.62%.
